System: HCMV AD 169 RV-HG
Test: HCMV fluorescence-reduction test (GFP-RA)
Format: cell-based, human cytomegalovirus
Settings: Human betaherpesvirus 5, AD169, NHDF, 168 h, read-out: EC50 (GFP-RA)
Excerpt: The in vitro effects of the compositions according to the present invention on the replication of the HCMV (human cytomegalovirus) can be seen in the following antiviral assay:
The solution from Example 8 is used without further dilution in the test. The composition from Example 6A is used as a 50-millimolar (mM) solution in dimethyl sulphoxide (DMSO). Ganciclovir®, Foscarnet® or Cidofovir® can be used as reference compositions. One day before the beginning of the test, 1.5×10^4 human foreskin fibroblasts (NHDF cells)/well are seeded in 200 μl of cell culture medium in Wells B2-G11 of 96-well plates (black with transparent floor). The wells along the edges of each 96-well plate are filled with 200 μl of medium only in order to prevent edge effects. […] The virus used is a recombinant HCMV which has integrated an expression cassette for green fluorescence protein (GFP) in the virus genome (HCMV AD 169 RV-HG [E. M. Borst, K. Wagner, A. Binz, B. Sodeik, and M. Messerle, 2008, J. Virol. 82:2065-2078.]). […] The GFP intensity of each well in a 96-well plate is then determined using a fluorescence scanner (FluoBox; Bayer Technology Services GmbH; filter settings: GFP, Ex 480 nm, Em 520 nm). The measured values thus obtained can be used to determine the EC50 of an anti-HCMV: […]

## COc1cccc(N2CCN(C3=Nc4c(F)cccc4[C@H](CC(=O)O)N3c3cc(C(F)(F)F)ccc3OC)CC2)c1 [Example 6A, (S)-{8-fluoro-2-[4-(3-methoxyphenyl)piperazine-1-yl]-3-(2-methoxy-5-trifluoromethylphenyl)-3,4-dihydroquinazoline-4-yl}acetic acid]
  EC50: 0.0022 ± 0.0002 µM

## Nc1nc(O)c2ncn(COC(CO)CO)c2n1 [Ganciclovir]
  EC50: 2.5 ± 0.4 µM
